According to BindingDB's records for patent US20250066353 (Athos Therapeutics, 2025):

Target: T1, Pantetheinase (Homo sapiens, UniProt O95497)
T1 sequence (O95497 whole entry): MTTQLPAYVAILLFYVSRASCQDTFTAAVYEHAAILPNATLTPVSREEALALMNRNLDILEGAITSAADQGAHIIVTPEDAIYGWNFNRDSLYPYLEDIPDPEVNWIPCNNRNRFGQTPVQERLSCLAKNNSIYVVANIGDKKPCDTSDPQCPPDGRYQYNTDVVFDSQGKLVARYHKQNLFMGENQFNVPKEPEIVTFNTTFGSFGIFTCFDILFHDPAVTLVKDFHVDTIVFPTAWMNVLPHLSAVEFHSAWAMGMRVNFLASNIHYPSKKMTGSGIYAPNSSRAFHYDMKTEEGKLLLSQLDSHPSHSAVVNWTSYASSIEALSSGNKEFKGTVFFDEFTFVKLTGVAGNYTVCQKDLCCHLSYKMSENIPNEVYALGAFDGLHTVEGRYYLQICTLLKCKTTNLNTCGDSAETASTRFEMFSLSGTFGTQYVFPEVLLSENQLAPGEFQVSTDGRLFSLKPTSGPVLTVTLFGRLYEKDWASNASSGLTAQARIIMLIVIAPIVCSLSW
Test: VNN1 Inhibitor Binding Assay
Experimental: 5 μL of 3× (45 μM) of Pantothenate-AMC to achieve final concentrations of 15 μM (0.25% DMSO final) were added in a 384 well assay plate followed by the addition of 5 μL of 3× the desired concentration of the tested compounds (Compound 1; Compound 2; and RR6) in 0.75% DMSO to designated wells (0.25% of DMSO final). The range of the compound concentrations tested was 10, 3.33, 1.11, 0.37, 0.12, 0.04, 0.01, 0.0046, 0.001, and 0.0005 μM. 5 μL of 0.75% DMSO were also added to positive and negative control wells.5 μL of 1.4 ng/μL Vanain-1 was added to the assay plate to achieve a final amount of 7 ng/well, and covered with plate sealer. Another 5 μL of assay buffer was added to negative controls and the assay plate was then centrifuged briefly (1000 rpm for 30 s) in a plate centrifuge. The assay plate was incubated in the dark for 20 minutes at room temperature and immediately read on an Envision 2105, PerkinElmer multimode plate reader.The fluorescence read was captured at excitation wavelength of 355 nm and emission wavelength of 460 nm.

**Q.** For CC(=O)NCCN1Cc2nc(NCc3cncc(C#N)c3)ccc2C1=O [US20250066353, Compound 41], which IC50 is on record?
**A.** > 10 µM
